Measurements taken from ChEMBL document CHEMBL3431459, “Roche carnitine palmitoyltransferase modulator screening data (supplementary data associated with the publication CHEMBL2216752)”.
pIC50: −log10 of the molar value. Converted amounts (≈) assume the structure as drawn.

Key:
[1] = SUPPLEMENTARY: Lyophilisation Solubility Assay (LYSA); type: physicochemical; details: read-out: Kinetic_solubility
[2] = target: T1, Carnitine O-palmitoyltransferase 1, liver isoform (Homo sapiens, UniProt P50416); assay: (§1) SUPPLEMENTARY: Inhibition of Carnitine palmitoyltransferase 1, liver isoform
T1 sequence (P50416 whole entry): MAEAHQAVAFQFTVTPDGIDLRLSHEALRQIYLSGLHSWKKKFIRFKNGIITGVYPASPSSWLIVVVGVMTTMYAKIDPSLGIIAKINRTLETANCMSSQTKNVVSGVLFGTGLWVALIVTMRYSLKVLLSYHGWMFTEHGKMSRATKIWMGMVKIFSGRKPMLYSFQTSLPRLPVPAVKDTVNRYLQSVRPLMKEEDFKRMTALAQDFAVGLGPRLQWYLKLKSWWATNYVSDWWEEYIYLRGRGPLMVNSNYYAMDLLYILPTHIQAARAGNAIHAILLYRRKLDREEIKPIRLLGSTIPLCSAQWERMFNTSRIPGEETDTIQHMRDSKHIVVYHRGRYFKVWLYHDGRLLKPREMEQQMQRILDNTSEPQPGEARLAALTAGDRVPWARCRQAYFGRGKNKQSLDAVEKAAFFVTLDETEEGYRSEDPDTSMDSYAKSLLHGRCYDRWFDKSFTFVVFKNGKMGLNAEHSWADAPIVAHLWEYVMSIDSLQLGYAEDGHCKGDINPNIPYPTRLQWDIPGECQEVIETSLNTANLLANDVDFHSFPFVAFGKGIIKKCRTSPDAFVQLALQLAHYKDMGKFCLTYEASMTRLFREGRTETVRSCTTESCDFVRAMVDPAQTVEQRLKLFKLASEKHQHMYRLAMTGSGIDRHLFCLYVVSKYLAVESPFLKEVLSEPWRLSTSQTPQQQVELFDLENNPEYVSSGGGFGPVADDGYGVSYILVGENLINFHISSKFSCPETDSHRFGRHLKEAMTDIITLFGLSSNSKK

[3] = target: T2, Carnitine O-palmitoyltransferase 1, liver isoform (Rattus norvegicus, UniProt P32198); assay: as §1
T2 sequence (P32198 whole entry): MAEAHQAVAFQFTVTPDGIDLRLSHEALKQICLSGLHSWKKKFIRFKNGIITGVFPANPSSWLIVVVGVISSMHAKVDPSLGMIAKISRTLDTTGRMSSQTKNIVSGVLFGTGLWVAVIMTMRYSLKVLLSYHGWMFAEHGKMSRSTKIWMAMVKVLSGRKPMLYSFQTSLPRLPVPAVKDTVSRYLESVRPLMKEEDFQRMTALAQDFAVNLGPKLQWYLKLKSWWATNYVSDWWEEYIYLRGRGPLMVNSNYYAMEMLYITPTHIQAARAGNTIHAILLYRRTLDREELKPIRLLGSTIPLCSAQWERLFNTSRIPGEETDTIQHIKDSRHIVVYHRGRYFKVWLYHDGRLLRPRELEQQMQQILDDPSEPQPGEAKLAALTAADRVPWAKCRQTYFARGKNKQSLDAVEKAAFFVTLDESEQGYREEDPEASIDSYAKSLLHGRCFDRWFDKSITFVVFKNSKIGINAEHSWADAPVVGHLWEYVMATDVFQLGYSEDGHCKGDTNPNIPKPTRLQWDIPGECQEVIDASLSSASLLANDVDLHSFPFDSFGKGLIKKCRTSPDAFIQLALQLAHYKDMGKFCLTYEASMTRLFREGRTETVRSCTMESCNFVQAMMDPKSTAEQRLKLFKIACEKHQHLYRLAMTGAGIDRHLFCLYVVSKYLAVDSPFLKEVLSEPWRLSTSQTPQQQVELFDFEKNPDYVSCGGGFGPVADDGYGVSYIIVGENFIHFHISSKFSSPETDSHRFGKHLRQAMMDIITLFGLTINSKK

[4] = target: T3, Carnitine O-palmitoyltransferase 1, muscle isoform (Homo sapiens, UniProt Q92523); assay: SUPPLEMENTARY: Inhibition of Carnitine palmitoyltransferase 1, muscle isoform; parameters: species or system Muscle tissue
T3 sequence (Q92523 whole entry): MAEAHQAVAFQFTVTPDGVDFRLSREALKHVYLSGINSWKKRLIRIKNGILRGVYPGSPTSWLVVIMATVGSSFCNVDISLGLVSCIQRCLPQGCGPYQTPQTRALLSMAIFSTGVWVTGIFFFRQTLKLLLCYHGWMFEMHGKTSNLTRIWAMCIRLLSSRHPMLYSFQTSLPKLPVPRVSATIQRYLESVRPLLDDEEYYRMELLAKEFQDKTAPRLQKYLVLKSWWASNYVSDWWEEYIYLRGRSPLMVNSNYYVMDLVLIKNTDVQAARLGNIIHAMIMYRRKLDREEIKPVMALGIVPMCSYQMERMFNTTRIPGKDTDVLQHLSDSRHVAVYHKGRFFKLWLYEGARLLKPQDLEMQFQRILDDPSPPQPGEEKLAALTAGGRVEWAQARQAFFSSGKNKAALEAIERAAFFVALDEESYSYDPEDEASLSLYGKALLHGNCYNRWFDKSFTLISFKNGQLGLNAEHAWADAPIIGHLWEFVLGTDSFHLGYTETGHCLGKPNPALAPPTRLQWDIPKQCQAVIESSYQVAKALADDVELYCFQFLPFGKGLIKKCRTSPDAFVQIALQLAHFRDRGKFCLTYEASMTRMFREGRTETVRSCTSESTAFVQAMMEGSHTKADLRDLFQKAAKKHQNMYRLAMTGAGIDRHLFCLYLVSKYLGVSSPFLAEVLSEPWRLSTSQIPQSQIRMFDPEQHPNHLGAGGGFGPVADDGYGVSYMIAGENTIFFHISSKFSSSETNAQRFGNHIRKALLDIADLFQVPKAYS

[5] = SUPPLEMENTARY: Lipophilicity (log D) Determination by high-throughput shake-flask; type: physicochemical; details: octanol/water
[6] = SUPPLEMENTARY: PAMPA permeability assay; type: physicochemical; details: read-out: Permeability
[7] = target: T4, Carnitine O-palmitoyltransferase 2, mitochondrial (Rattus norvegicus, UniProt P18886); assay: (§2) SUPPLEMENTARY: Inhibition of Carnitine palmitoyltransferase 2
T4 sequence (P18886 whole entry): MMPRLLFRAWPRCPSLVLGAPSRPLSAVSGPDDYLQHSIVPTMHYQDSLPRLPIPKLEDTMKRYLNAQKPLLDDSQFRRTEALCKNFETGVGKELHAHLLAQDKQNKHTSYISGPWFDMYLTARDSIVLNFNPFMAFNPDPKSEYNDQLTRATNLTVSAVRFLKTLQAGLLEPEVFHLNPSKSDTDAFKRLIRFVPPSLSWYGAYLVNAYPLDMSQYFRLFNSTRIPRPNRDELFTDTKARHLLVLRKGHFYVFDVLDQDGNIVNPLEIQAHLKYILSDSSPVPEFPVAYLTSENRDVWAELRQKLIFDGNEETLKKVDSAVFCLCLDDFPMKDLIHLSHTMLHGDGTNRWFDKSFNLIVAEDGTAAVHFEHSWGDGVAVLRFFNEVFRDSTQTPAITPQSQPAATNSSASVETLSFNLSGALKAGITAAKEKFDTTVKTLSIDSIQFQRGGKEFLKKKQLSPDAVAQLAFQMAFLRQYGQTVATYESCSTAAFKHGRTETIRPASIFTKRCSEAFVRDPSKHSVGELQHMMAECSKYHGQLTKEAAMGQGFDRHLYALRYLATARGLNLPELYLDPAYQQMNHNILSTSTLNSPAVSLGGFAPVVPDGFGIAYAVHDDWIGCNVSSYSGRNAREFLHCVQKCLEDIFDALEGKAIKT

[8] = target: T5, Carnitine O-palmitoyltransferase 2, mitochondrial (Homo sapiens, UniProt P23786); assay: as §2
T5 sequence (P23786 whole entry): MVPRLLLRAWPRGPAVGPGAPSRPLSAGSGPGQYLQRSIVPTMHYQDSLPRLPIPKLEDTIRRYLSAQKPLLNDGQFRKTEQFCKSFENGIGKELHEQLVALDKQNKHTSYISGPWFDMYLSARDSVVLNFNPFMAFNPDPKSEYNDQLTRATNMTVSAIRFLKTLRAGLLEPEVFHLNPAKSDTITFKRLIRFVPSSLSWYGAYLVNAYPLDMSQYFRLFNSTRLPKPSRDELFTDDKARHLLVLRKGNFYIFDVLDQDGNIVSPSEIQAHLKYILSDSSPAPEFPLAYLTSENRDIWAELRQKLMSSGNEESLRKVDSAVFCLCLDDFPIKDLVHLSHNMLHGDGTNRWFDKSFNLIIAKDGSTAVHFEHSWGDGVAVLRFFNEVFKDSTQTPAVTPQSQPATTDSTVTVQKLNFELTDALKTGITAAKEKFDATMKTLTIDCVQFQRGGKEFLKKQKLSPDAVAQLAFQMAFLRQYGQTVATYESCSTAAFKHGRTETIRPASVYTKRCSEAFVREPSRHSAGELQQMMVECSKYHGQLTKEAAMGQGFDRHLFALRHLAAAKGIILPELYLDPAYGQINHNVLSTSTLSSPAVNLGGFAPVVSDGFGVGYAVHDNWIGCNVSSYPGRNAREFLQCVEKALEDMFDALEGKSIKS

| solubility kinetic [1] [µg/mL] | pIC50 [2] | pIC50 [3] | pIC50 [4] | logD [5] | Papp [6] [×10⁻⁶ cm/s] | pIC50 [7] | pIC50 [8] | SMILES |
| --- | --- | --- | --- | --- | --- | --- | --- | --- |
| 1 (≈ 2.9 µM) | 6.78 | 6.72 | < 4.00 | 3.56 | 0.61 | < 4.00 | < 4.00 | N#Cc1ccc(C#C[C@H]2CCCCN2C(=O)COc2ccccc2)cc1 |
| 81 (≈ 180 µM) | 7.20 | 7.38 | < 4.00 | 2.58 | 11.5 | 5.85 | 6.31 | O=C([C@H]1CCCCN1C(=O)COc1ccccc1)N1Cc2ccc(O[C@@H]3CCOC3)cc2C1 |
| < 1 | 6.88 | 6.79 | < 4.00 | 3.88 | 2.27 | < 4.00 | 4.32 | O=C(COc1ccccc1)N1CCCC[C@@H]1c1nnn(-c2ccc3[nH]ccc3c2)n1 |

Further lines, the compound ahead of its results:

| SMILES | solubility kinetic [1] [µg/mL] | pIC50 [2] | pIC50 [3] | pIC50 [4] | logD [5] | Papp [6] [×10⁻⁶ cm/s] | pIC50 [7] | pIC50 [8] |
| --- | --- | --- | --- | --- | --- | --- | --- | --- |
| N#Cc1cncc(-c2noc([C@H]3CCCCN3C(=O)COc3ccccc3)n2)c1 | 11 (≈ 28.2 µM) | 6.64 | 6.12 | < 4.00 | 2.49 | 6.36 | < 4.00 | < 4.00 |
| CCCN(c1cc(C(=O)Nc2ncc(CC(=O)O)s2)cc2c1OCO2)S(=O)(=O)c1cc(Cl)ccc1OC | 108 (≈ 190 µM) | 6.74 | 7.21 | 6.15 | 2.74 | 3.56 | < 4.00 | < 4.00 |
| O=C1COc2ccc(-c3nc([C@H]4CCCCN4C(=O)COc4ccccc4)no3)cc2N1 | 35 (≈ 80.6 µM) | 7.45 | 7.05 | < 4.00 | 3.12 | 3.74 | < 4.00 | < 4.00 |
| O=C(COc1ccccc1)N1CCCC[C@@H]1c1noc(-c2cc(Cl)nnc2O)n1 | > 509 | 6.92 | 6.20 | 4.14 | 1.84 | 6.21 | < 4.00 | 4.64 |
| COc1ccc(Cl)cc1CN(C(=O)C(C)C)c1cc(C(=O)Nc2nc(CC(=O)O)cs2)ccc1Cl | 438 (≈ 816 µM) | 6.63 | 6.36 | 5.59 | 1.34 | 3.2 | < 4.00 | < 4.00 |
